Reference: PubChem BioAssay (NCI)
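Following 48 hours of exposure in 96-well plates, responses at five concentrations were used to interpolate endpoints linearly. TGI marks complete inhibition of growth.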 Where a SMILES comes first, the peptide text is derived from it. [ ]: non-standard residue; d: D form. The star is where a group is joined. X28 = COC1=CC(=O)N(C(=O)[C@@H](O*)C(C)C)[C@H]1Cc1ccccc1; NMeL = CN[C@@H](CC(C)C)C(=O)O; Hexanoyl = CCCCCC(=O)*

What was measured:
Assay in all cases: growth of human tumour cells (NCI), 48 h
ACHN renal = test system: ACHN renal
K-562 leukemia = test system: K-562 leukemia
MDA-MB-231 breast = test system: MDA-MB-231 breast
MDA-MB-435 = test system: MDA-MB-435
MDA-N = test system: MDA-N
NCI-H226 lung = test system: NCI-H226 lung
RPMI-8226 leukemia = test system: RPMI-8226 leukemia
SK-MEL-28 melanoma = test system: SK-MEL-28 melanoma
SN12C renal = test system: SN12C renal
UO-31 renal = test system: UO-31 renal

SMILES | TGI (ACHN renal) [µM] | TGI (K-562 leukemia) [µM] | TGI (MDA-MB-231 breast) [µM] | TGI (MDA-MB-435) [µM] | TGI (MDA-N) [µM] | TGI (NCI-H226 lung) [µM] | TGI (RPMI-8226 leukemia) [µM] | TGI (SK-MEL-28 melanoma) [µM] | TGI (SN12C renal) [µM] | TGI (UO-31 renal) [µM]
Fc1ccc(C(=NCc2ccccc2)N2CCOCC2)cc1 | > 100 | > 100 | > 100 | > 100 | > 100 | > 100 | > 100 | > 100 | > 100 | > 100
O=c1[nH]c2ccc(CC(=S)N3CCN(c4ccccc4)CC3)cc2s1 | > 100 | > 100 | > 100 | > 100 | > 100 | 69.6 | 49.8 | > 100 | > 100 | 
N=C(/C=C/c1ccc(-c2cn3cc(/C=C/C(=N)N4CCOCC4)ccc3n2)cc1)N1CCOCC1 | > 100 | > 100 | > 100 | > 100 | > 100 | > 100 | > 100 | > 100 | > 100 | > 100
COc1ccc(OC)c2c1C[C@@H]1C(C#N)N3[C@H](Cc4c(OC)ccc(OC)c4[C@@H]3C)C(=O)N1[C@H]2C (some centres not stated) | 9.53 | 7.26 | 7.56 | 14 | 22 | 40.9 | 7.29 | 10.1 | > 50.2 | 4.54
COCOc1cc(OC)ccc1C=O | > 100 | > 100 | > 100 | 40.6 | 23.7 | > 100 |  | > 100 | > 100 | > 100
COC(=O)C1Cc2c([nH]c3ccccc23)-c2[nH]c3ccccc3c2CC(NC(C)=O)C(=O)NCC(=O)N1 (configuration not stated) | > 100 | > 100 | > 100 | > 100 | > 100 | > 100 | > 100 | > 100 | > 100 | > 100
OC1(c2ccc(Cl)cc2)c2ccccc2C2=Nc3ccccc3CN21 (configuration not stated) | 28.6 | > 100 | > 100 | > 100 | > 100 | > 71.9 | > 100 | 98.3 | > 79.6 | > 100
CCC1=C(C)C2=NC1=CC1=NC(=C(CC)/C1=C/O)C=C1N=C3C(=C1C)C(=O)C(C(=O)OC)C3=C1NC(=C2)C(C)C1CCC(=O)OC (configuration not stated) | > 100 | > 100 | > 100 | > 100 | > 100 | > 100 | > 100 | > 100 | > 100 | > 100
COc1ccc(N=NN2CCCC2)cc1 | 29.9 | > 100 | 47.7 | > 100 | 39.8 | > 100 | 74.1 | > 100 | 55 | > 100
CCCCCC(=O)N[C@H](C(=O)N[C@H](C(=O)N(C)[C@@H](CC(C)C)C(=O)N1CCC[C@H]1C(=O)N1CCC[C@H]1C(=O)O[C@H](C(=O)N1C(=O)C=C(OC)[C@@H]1Cc1ccccc1)C(C)C)C(C)C)C(C)C (Hexanoyl-VV[NMeL]PP-X28) | > 100 | > 100 | > 100 | > 100 | > 100 | > 100 | > 100 | > 100 | > 100 | 
Cc1ccc(Nc2ncnc3sc(SCc4ccccc4)nc23)cc1 | > 100 | > 100 | > 100 | > 100 | > 100 | > 100 | > 100 | > 100 | > 100 | > 100
C(=N\NC1=NCCCN1)/c1ccc(-c2cn3cc(/C=N/NC4=NCCCN4)ccc3n2)cc1 | > 100 | > 84.3 | > 100 | > 100 | > 100 | > 100 | > 88.6 | > 100 | > 100 | > 100
O=[N+]([O-])c1ccccc1S(=O)(=O)N1CCCc2cc(Cl)ccc21 | > 100 | > 75.2 | > 100 | 41.7 | > 48.2 | > 100 | > 100 | > 100 | > 100 | > 100
CC(=O)OCc1ccc(-c2nc(C#N)c(N)o2)o1 | > 10 | > 10 | > 10 | > 10 | > 10 | > 10 | > 10 | > 10 | > 10 | > 10
CC(=O)C1=CC=C/C1=N\Nc1ccccc1 | 23.4 | 20.5 | 24.2 | 27.4 | 19.2 | 39.8 | 7.75 | 27 | 22.7 | 25.8
COC(=O)c1ccc(/C=C/C2=CC(=O)C=CC2=O)cc1 | 32.7 | 8.55 | > 49.2 | 44 | > 100 | 40.2 | 4.49 | 50.8 | 58 | 17.9
Cc1nn(-c2ccccc2)c(C)c1/C=N/NC(=O)c1sc(=S)n(-c2ccc(Cl)cc2)c1N | > 100 | > 100 | > 100 | > 100 | > 100 | > 100 | 7.73 | > 100 | > 100 | 55.7
C=C1C(=O)OC2C(C)C3C=CC(=O)[C@@]3(C)C(OC(=O)/C(C)=C/C)C1[C@@H]2OC(C)=O (some centres not stated) | 1.68 | 16 | 0.678 | 0.86 | 0.738 | 4.42 | 3.16 | 1.76 | 1.24 | 2.48
